“Also recorded” adds a separate entry of the source.
How the values were obtained:
[1] = target: T1, NanoLuc–SIRT2 fusion protein in HEK293T cells (Homo sapiens, UniProt Q8IXJ6); test: Kinetic NanoBRET washout assay (target residence time); type: cell-based; conditions: 25 µM (5 × EC50), 2 h preincubation, 2 h washout
T1 construct: HEK293T cells stably expressing the NanoLuc-SIRT250-364-fusion target protein were seeded into the coated plates; expressed in transfected cells; host or cells: HEK293T (stably expressing)
T1 sequence (Q8IXJ6 50-364 limits assumed): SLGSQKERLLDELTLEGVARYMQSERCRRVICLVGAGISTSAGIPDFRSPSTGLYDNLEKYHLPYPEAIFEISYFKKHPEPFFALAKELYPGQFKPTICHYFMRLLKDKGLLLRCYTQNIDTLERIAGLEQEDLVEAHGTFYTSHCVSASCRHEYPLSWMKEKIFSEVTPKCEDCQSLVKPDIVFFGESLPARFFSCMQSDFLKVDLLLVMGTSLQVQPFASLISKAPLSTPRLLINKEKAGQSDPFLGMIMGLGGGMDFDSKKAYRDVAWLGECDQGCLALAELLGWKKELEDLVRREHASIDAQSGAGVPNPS
Procedure: NanoBRET washout assay for determination of target residence time
A NanoBRET-based washout assay was used to assess the target residence time of inhibitors for SIRT2 in living cells. White, flat-bottom 96-well plates (PerkinElmer) were pre-coated with poly-L-lysine (Sigma-Aldrich) to enhance cell adherence. Briefly, each well was treated with poly-L-lysine solution for 5 min at room temperature, followed by removal of the coating solution and air-drying before seeding.
Cells were treated with the indicated inhibitor
After incubation, the inhibitor-containing medium was aspirated, and a washout procedure was performed to remove unbound inhibitor. Each well was washed twice by sequential addition and removal of 100 µL Opti-MEM (Thermo Fisher Scientific). Following the final wash, 90 µL Opti-MEM was added per well, followed by 100 µL of 2× Nano-Glo® substrate solution (Promega) and 10 µL of 20× SIRT2-Tracer solution.
BRET measurements were recorded kinetically using a Tecan Spark® plate reader equipped with donor (460 nm)
The BRET ratio was monitored over time to track the re-binding of the

[2] = target: T2, NanoLuc–SIRT2 fusion protein in HEK293T cells (Homo sapiens, UniProt Q8IXJ6); set-up: method as in PMID 35441145; conditions: read-out: NanoBRET EC50; cited from earlier work
T2 construct: transfected HEK293T cells expressing the NanoLuc-tagged SIRT250-356 fusion protein were used instead of transient; expressed in transfected cells; host or cells: HEK293T (stably transfected)
T2 sequence (Q8IXJ6 50-356 limits assumed): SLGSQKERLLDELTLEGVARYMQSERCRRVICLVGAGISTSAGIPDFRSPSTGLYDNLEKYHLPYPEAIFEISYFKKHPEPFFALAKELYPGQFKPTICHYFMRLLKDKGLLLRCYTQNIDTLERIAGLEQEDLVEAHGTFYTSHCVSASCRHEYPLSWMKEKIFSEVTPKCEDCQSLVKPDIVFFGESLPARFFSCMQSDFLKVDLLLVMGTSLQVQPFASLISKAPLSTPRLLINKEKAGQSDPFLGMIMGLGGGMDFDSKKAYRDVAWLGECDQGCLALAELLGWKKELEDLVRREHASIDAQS

O=C(NCc1cccnc1)c1ccc2c(c1)C1C3CCC(C3)C1C(c1ccccc1)N2 (centres unmarked) [AEM2, reference compound]
inhibition after washout [1]: completely lost activity; also recorded: fades with washout over 2 h
EC50 [2]: 5.2 ± 0.2 µM
